Where “and” joins values, the source holds several entries; their conditions need not be identical. Identical values can stand only once.
Tests used:
JVM2 (Lymphoma) = test: MTT in vitro cytotoxicity, 72 hour incubation; format: cell-based; settings: Homo sapiens, JVM-2, MTT assay, JVM2 cells
Protocol: (§1) The in vitro cytotoxicity of a selection of compounds was determined in a panel of cell lines using the standard MTT assay for a 72 hour incubation period (Table 1).
(§2) Tumor cell lines were maintained in RPMI1640 medium supplemented with 10% heat-inactivated fetal bovine serum, 2 mM L-glutamine and 1 mM sodium pyruvate. 1800 cells per well were seeded in a volume of 180 μl in a 96-well flat bottom polystyrene plate. The cells were allowed to adhere overnight at 37° C. in a CO2 incubator. Ligands were initially formulated in DMSO, and stocks stored at −80° C. They were then further formulated at lox concentration in RPMI1640 medium. 20 μl of diluted samples were added into each treatment well. On each plate, blank wells with no cells, and untreated wells containing cells, were included. Plates were then cultured at 37° C. in a CO2 incubator for 72 hrs. Cytotoxicity was evaluated using a tetrazolium salt-based assay, the MTT assay. After 72 hours, the supernatant was removed from each well and 200 μl of a sterile filtered 500 μg/ml MTT solution in water added to each well. The plates were then incubated at 37° C. in a CO2 incubator for 4 hrs. The supernatant was then removed and the formazan crystals formed solubilized by adding 150 μl of DMSO to each well. The plate was then read on a plate reader at 540 nm, and percentage cell survival calculated as follows: ((mean absorbance treated wells at concentration×−mean absorbance blank wells)÷(mean absorbance untreated wells at concentration×−mean absorbance blank wells))×100. Data were plotted as concentration in nM vs. % cell survival in Microsoft Excel, and IC50 values (concentration where cell survival is reduced by a half) were determined from the graph.

Jurkat (Leukaemia) = test: MTT in vitro cytotoxicity, 72 hour incubation; format: cell-based; settings: Homo sapiens, MTT assay, Jurkat cells
Protocol: as §1, §2

RAJI (Lymphoma) = test: MTT in vitro cytotoxicity, 72 hour incubation; format: cell-based; settings: Homo sapiens, MTT assay, RAJI cells
Protocol: as §1, §2

[1] = Hydrophobicity investigation of free payloads by UPLC (hydrophobicity model); format: physicochemical; settings: for Retention Time (min) seco form / Retention Time (min) spiro form: single runs 1-3 (triplicate), 0.1% TFA water/acetonitrile gradient; for Retention Time (min) seco form, Average: Average of runs, D only in seco form, the others observable as single species
Protocol: Both mobile phases were filtered through 0.22 μm filters and degassed by sonication under argon. Caffeine (Merck, UPLC grade) was employed a standard. Blank solvent samples (i.e., DMSO) were used during sample runs to confirm lack of carryover between injections and to monitor column performance.
UPLC-MS analysis was performed on a Waters Acquity H-Class Ultra-Performance Liquid Chromatography (UPLC) System equipped with an Acquity UPLC BEH, […] 50×2.10 mm (Waters, UK) column and a photodiode array detector […], using Waters MassLynx software. The gradient system used for LC analysis consisted of 0.1% trifluoroacetic acid (TFA) in water as Solvent A, and 0.1% trifluoroacetic acid (TFA) in acetonitrile as Solvent B. TFA was purchased from Merck (UK), and diluted to the required concentration with UPLC grade water and acetonitrile for Solvent A and Solvent B, respectively. TFA was added to ensure acidic conditions throughout the analysis. A flow rate of 0.4 mL/min was used, and the detection wavelength was 254 nm. Mass spectrometry data were collected using a Waters SQ Detector 2 coupled to a Waters Acquity H Class UPLC and a Photo Diode Array Detector (ACQ-PDA). The Waters SQ Detector 2 parameters were set to: Capillary (kV), 3.00; Cone (V), 30; De-solvation Temperature (° C.), 600; Cone flow rate (L/h), 50; De-solvation flow rate (L/h), 600.
Gradient method used: from 95% A/5% B to 20% B over 5 min. Then from 20% B to 60% B over 35 min, followed by from 60% B to 85% B over 10 min. It was further changed from 85% B to 90% B over 5 min and kept for a further 5 min. Finally, from 90% B to 95% B over 2.5 min, and then to 20% B over 2.5 min. 10 μL was split via a zero-dead volume T-piece which passed into the mass spectrometer.
Compounds were provided in powder form and were dissolved in DMSO to achieve 5 mM stock solution. This solution was then diluted to 500 μM with 50% acetonitrile/50% water.
A number of commercially available ADC payloads and internal reference compounds were also incorporated into the analysis, and their structures are presented in Table 3.

Row | SMILES | IC50 (JVM2 (Lymphoma)) [nM] | IC50 (Jurkat (Leukaemia)) [nM] | IC50 (RAJI (Lymphoma)) [nM] | Retention Time (min) seco form [1] | Retention Time (min) spiro form [1] | Retention Time (min) seco form, Average [1] [min] | enhanced hydrophilicity (retention time) compared to the unsubstituted compound (B) ([1]; carbamate pro-drug D versus B)
1 | COc1cc2c(cc1OC[C@@H](O)CC(=O)N1C[C@@H](CCl)c3c1cc(O)c1ccccc31)N=C[C@@H]1CC(c3ccsc3)=CCN1C2=O [Compound 108, (S)-3-((S)-4-((S)-1-(Chloromethyl)-5-hydroxy-1,2-dihydro-3H-benzo[e]indol-3-yl)-2-hydroxy-4-oxobutoxy)-2-methoxy-8-(thiophen-3-yl)-7,10-dihydrobenzo[e]pyrido[1,2-a][1,4]diazepin-12(6aH)-one] | 0.0047 | 0.014 | 0.01 | 22.54 min and 22.53 min | 15.71 min and 15.69 min and 15.70 min |  | 
2 | COc1cc2c(cc1OCCCCCC(=O)N1C[C@@H](CCl)c3c1cc(O)c1ccccc31)N=C[C@@H]1CCCN1C2=O [C, reference compound] |  |  |  | 20.16 min and 20.15 min | 12.49 min and 12.48 min and 12.45 min |  | 
3 | COc1cc2c(cc1OCc1cccc(CC(=O)N3C[C@@H](CCl)c4c3cc(O)c3ccccc43)c1)N=C[C@@H]1CCCCN1C2=O [B, reference compound] |  |  |  | 23.64 min and 23.65 min | 16.10 min and 16.12 min and 16.09 min |  | 
4 | COc1cc2c(cc1OCCOCCC(=O)N1C[C@@H](CCl)c3c1cc(O)c1ccccc31)N=C[C@@H]1CC(c3ccsc3)=CCN1C2=O [Compound 104, (S)-3-(2-(3-((S)-1-(Chloromethyl)-5-hydroxy-1,2-dihydro-3H-benzo[e]indol-3-yl)-3-oxopropoxy)ethoxy)-2-methoxy-8-(thiophen-3-yl)-7,10-dihydrobenzo[e]pyrido[1,2-a][1,4]diazepin-12(6aH)-one] | 0.0018 | 0.0095 | 0.0025 | 24.10 min and 24.09 min | 16.90 min and 16.93 min and 16.91 min |  | 
5 | COc1cc2cc(c1Cl)N(C)C(=O)C[C@](C)(OC(=O)[C@@H](C)N(C)C(=O)CCSC)[C@]1(C)O[C@H]1[C@H](C)[C@@H]1C[C@@](O)(NC(=O)O1)[C@H](OC)/C=C/C=C(\C)C2 [DM1, reference compound] |  |  |  |  |  | 21.24 | 
6 | COc1cc2c(cc1OCc1cc(N)cc(COc3cc4c(cc3OC)C(=O)N3c5ccccc5C[C@H]3CN4)c1)N=C[C@@H]1Cc3ccccc3N1C2=O [DGN549, reference compound] |  |  |  |  |  | 16.60 | 
7 | CNS(=O)(=O)c1ccc(C2=CCN3C(=O)c4cc(OC)c(OC[C@@H](O)CC(=O)N5C[C@@H](CCl)c6c5cc(O)c5ccccc65)cc4N=C[C@@H]3C2)cc1 [Compound 88, 4-((S)-3-((S)-4-((S)-1-(Chloromethyl)-5-hydroxy-1,2-dihydro-3H-benzo[e]indol-3-yl)-2-hydroxy-4-oxobutoxy)-2-methoxy-12-oxo-6a,7,10,12-tetrahydrobenzo[e]pyrido[1,2-a][1,4]diazepin-8-yl)-N-methylbenzenesulfonamide] | 0.49 | 0.97 | 0.954 | 18.73 min and 18.70 min | 12.47 min and 12.45 min |  | 
8 | COc1cc2c(cc1OCCCCCC(=O)N1C[C@@H](CCl)c3c1cc(O)c1ccccc31)N=C[C@@H]1CCCCN1C2=O [A, reference compound] |  |  |  | 22.55 min and 22.56 min | 14.85 min and 14.83 min and 14.84 min |  | 
9 | COc1cc2c(cc1OCCCC(=O)N1C[C@@H](CCl)c3c1cc(O)c1ccccc31)N=C[C@@H]1CC(c3ccsc3)=CCN1C2=O [Compound 100, (S)-3-(4-((S)-1-(Chloromethyl)-5-hydroxy-1,2-dihydro-3H-benzo[e]indol-3-yl)-4-oxobutoxy)-2-methoxy-8-(thiophen-3-yl)-7,10-dihydrobenzo[e]pyrido[1,2-a][1,4]diazepin-12(6aH)-one] | 0.001 |  |  | 25.24 min and 25.23 min | 17.94 min and 17.89 min and 17.93 min |  | 
10 | COc1cc2c(cc1OCCCCCOc1cc3c(cc1OC)C(=O)N1C=C(C)C[C@H]1C=N3)C=C[C@@H]1CC(C)=CN1C2=O [SG3199, reference compound] |  |  |  |  |  | 12.02 | 
11 | COc1cc2c(cc1OCCCCCC(=O)N1C[C@@H](CCl)c3c1cc(O)c1ccccc31)N=C[C@@H]1CC(c3ccsc3)=CCN1C2=O [Compound 96, (S)-3-((6-((S)-1-(Chloromethyl)-5-hydroxy-1,2-dihydro-3H-benzo[e]indol-3-yl)-6-oxohexyl)oxy)-2-methoxy-8-(thiophen-3-yl)-7,10-dihydrobenzo[e]pyrido[1,2-a][1,4]diazepin-12(6aH)-one] |  |  | 0.0014 | 28.04 min and 28.08 min and 28.06 min | 21.00 min and 21.02 min |  | 
12 | CNS(=O)(=O)c1ccc(C2=CCN3C(=O)c4cc(OC)c(OCCOCCC(=O)N5C[C@@H](CCl)c6c5cc(O)c5ccccc65)cc4N=C[C@@H]3C2)cc1 [Compound 76, 4-((S)-3-(2-(3-((S)-1-(Chloromethyl)-5-hydroxy-1,2-dihydro-3H-benzo[e]indol-3-yl)-3-oxopropoxy)ethoxy)-2-methoxy-12-oxo-6a,7,10,12-tetrahydrobenzo[e]pyrido[1,2-a][1,4]diazepin-8-yl)-N-methylbenzenesulfonamide] | 0.0138 | 0.0095 | 0.0172 | 20.14 min | 13.29 min and 13.28 min |  | 
13 | CC[C@H](C)C[C@H](OC)[C@@H](C(=O)N1CCC[C@H]1[C@@H](CC(=O)N[C@H](C)[C@@H](O)c1ccccc1)OC)N(C)C(=O)[C@@H](NC(=O)[C@@H](NC)C(C)C)C(C)C [MMAE, reference compound] |  |  |  |  |  | 12.04 | 
14 | COc1ccc(C2=CN3C(=O)c4cc(OC)c(OCCCOc5cc6c(cc5OC)C(=O)N5C=C(c7ccc(N)cc7)C[C@H]5C=N6)cc4N=C[C@@H]3C2)cc1 [SGD1882, reference compound] |  |  |  |  |  | 12.55 | 
15 | COc1cc2c(cc1OCc1cccc(CC(=O)N3C[C@@H](CCl)c4c3cc(OC(=O)N3CCN(C)CC3)c3ccccc43)c1)N=C[C@@H]1CCCCN1C2=O [D, reference compound] |  |  |  |  |  | 17.03 | approximately 10 mins
16 | CCc1c2c(nc3ccc(O)cc13)-c1cc3c(c(=O)n1C2)COC(=O)[C@]3(O)CC [SN38, reference compound] |  |  |  |  |  | 7.13 | 
17 | CNS(=O)(=O)c1ccc(C2=CCN3C(=O)c4cc(OC)c(OC[C@H](O)CC(=O)N5C[C@@H](CCl)c6c5cc(O)c5ccccc65)cc4N=C[C@@H]3C2)cc1 [Compound 92, 4-((S)-3-((R)-4-((S)-1-(Chloromethyl)-5-hydroxy-1,2-dihydro-3H-benzo[e]indol-3-yl)-2-hydroxy-4-oxobutoxy)-2-methoxy-12-oxo-6a,7,10,12-tetrahydrobenzo[e]pyrido[1,2-a][1,4]diazepin-8-yl)-N-methylbenzenesulfonamide] | 0.12 | 0.55 | 0.41 | 18.82 min and 18.84 min | 12.16 min and 12.18 min |  | 

From patent publication US20220098191A1 (priority 2019, published 2022)
